Results from patent US10995103B2, “Substituted boric acid compound, pharmaceutical composition comprising same, and application thereof” (Shenzhen TargetRx, Inc., priority 2016, dated 2021).

Columns and labels:
[1] = Metabolic stability evaluation in rat liver microsomes; format: in vitro ADME; details: SD, pH 7.4, rat liver microsomes 0.5 mg/mL, compound 1 μM, NADPH, 37° C.; for microsomal CLint at 1 μM: read-out: CLint, experiment in rat liver microsomes; for half-life at 1 μM: read-out: t1/2, experiment in rat liver microsomes
Method: (§1) Experiments in microsomes: Human liver microsomes: 0.5 mg/mL, Xenotech; Rat liver microsomes: 0.5 mg/mL, Xenotech; Coenzyme (NADPH/NADH): 1 mM, Sigma Life Science; Magnesium chloride: 5 mM, 100 mM phosphate buffer (pH 7.4).
(§2) Preparation of stock solution: A certain amount of powder of the example compounds was accurately weighed and dissolved in DMSO to 5 mM respectively.
(§3) Preparation of phosphate buffer (100 mM, pH7.4): A pre-formulated 150 mL potassium dihydrogen phosphate (0.5 M) was mixed with 700 mL of dibasic potassium phosphate (0.5M). The pH of the mixture was adjusted to 7.4 with 0.5 M dibasic potassium phosphate solution. The mixture was diluted 5-fold with ultrapure water before use, and magnesium chloride was added to obtain the phosphate buffer (100 mM) containing 100 mM potassium phosphate, 3.3 mM magnesium chloride, pH 7.4.
(§4) A NADPH regeneration system solution (containing 6.5 mM NADP, 16.5 mM G-6-P, 3 U/mL G-6-P D, 3.3 mM magnesium chloride) was prepared and placed on wet ice before use.
(§5) Preparation of stop solution: acetonitrile solution containing 50 ng/mL propranolol hydrochloride and 200 ng/mL tolbutamide (internal standard). 25057.5 μL of phosphate buffer (pH 7.4) was taken into a 50 mL centrifuge tube, to which 812.5 μL human liver microsomes were added, respectively, and mixed to obtain a liver microsome dilution solution with a protein concentration of 0.625 mg/mL. 25057.5 μL of phosphate buffer (pH 7.4) was taken into a 50 mL centrifuge tube, to which 812.5 μL SD rat liver microsomes were added, respectively, and mixed to obtain a liver microsome dilution solution with a protein concentration of 0.625 mg/mL.
(§6) Incubation of the samples: The stock solution of the respective compounds was respectively diluted to 0.25 mM with an aqueous solution containing 70% acetonitrile, which were used as working solutions, ready for use. 398 μL of the dilution solution of human liver microsomes or rat liver microsomes were added to a 96-well incubation plate (N=2), respectively, and 2 μL of 0.25 mM working solution was added and mixed.
(§7) Metabolic stability assay: 300 μL of pre-chilled stop solution was added to each well of a 96-well deep well plate and placed on ice as the stop plate. The 96 well incubation plate and NADPH regeneration system were placed in a 37° C. water bath box, shaken at 100 rpm and pre-incubated for 5 min. 80 μL of incubation solution was taken out from each well of the incubation plate and added to the stop plate, mixed, and replenished with 20 μL of NADPH regeneration system solution as a 0-min sample. 80 μL of NADPH regeneration system solution was added to each well of the incubation plate to start the reaction and counting was started. […] 100 μL of the reaction solution was taken at 10, 30, and 90 min after reaction, respectively, added to the stop plate, and vortexed for 3 minutes to terminate the reaction. The stop plate was centrifuged for 4 min at 5000× g at 4° C. 100 μL of the supernatant was added to a 96-well plate to which 100 μL of distilled water was previously added, mixed, and analyzed by LC-MS/MS.
(§8) Data analysis: The peak areas of the corresponding compounds and internal standard were detected by LC-MS/MS system, and the ratio of the peak area of the compounds to the internal standard was calculated.
(§9) The metabolic stability in human and rat liver microsomes was evaluated by simultaneously testing and comparing the compounds disclosed herein and the non-deuterated compound. The non-deuterated compound Ixazomib was used as a control in the table.

[2] = Metabolic stability evaluation in human liver microsomes; format: in vitro ADME; details: pH 7.4, human liver microsomes 0.5 mg/mL, compound 1 μM, NADPH, 37° C.; for microsomal CLint at 1 μM: read-out: CLint, experiment in human liver microsomes; for half-life at 1 μM: read-out: t1/2, experiment in human liver microsomes
Method: as §1, §2, §3, §4, §5, §6, §7, §8, §9

Row | SMILES | microsomal CLint at 1 μM [1] [µL/min/mg] | half-life at 1 μM [1] [min] | microsomal CLint at 1 μM [2] [µL/min/mg] | half-life at 1 μM [2] [min]
1 | [2H]C([2H])(C(C)C)[C@H](NC(=O)CNC(=O)c1cc(Cl)ccc1Cl)B(O)O [Compound I-3, (R)-(1-(2-(2,5-dichlorobenzamido)acetamido)-2,2-d2-3-methylbutyl)boronic Acid] | – | – | 47.3 | 29.3
2 | [2H]C([2H])(C(C)C)[C@]([2H])(NC(=O)CNC(=O)c1cc(Cl)ccc1Cl)B(O)O [Compound I-5, (R)-(1-(2-(2,5-dichlorobenzamido)acetamido)-1-d-2,2-d2-3-methylbutyl)boronic Acid] | 97.8 | 14.2 | 47.3 | 29.3

Next, values leading:

Row | microsomal CLint at 1 μM [1] [µL/min/mg] | half-life at 1 μM [1] [min] | microsomal CLint at 1 μM [2] [µL/min/mg] | half-life at 1 μM [2] [min] | SMILES
3 | 81.3 | 17.1 | – | – | [2H]C([2H])(NC(=O)c1cc(Cl)ccc1Cl)C(=O)N[C@@H](CC(C)C)B(O)O [Compound I-1, (R)-(1-(2-(2,5-dichlorobenzamido)-2,2-d2-acetamido)-3-methylbutyl)boronic acid]
4 | 90.5 | 15.3 | 46.5 | 29.8 | [2H][C@@](CC(C)C)(NC(=O)CNC(=O)c1cc(Cl)ccc1Cl)B(O)O [Compound I-2, (R)-(1-(2-(2,5-dichlorobenzamido)acetamido)-1-d-3-methylbutyl)boronic Acid]
5 | 90 | 15.4 | 48.3 | 28.7 | [2H]C([2H])(NC(=O)c1cc(Cl)ccc1Cl)C(=O)N[C@@]([2H])(CC(C)C)B(O)O [Compound I-4, (R)-(1-(2-(2,5-dichlorobenzamido)-2,2-d2-acetamido)-1-d-3-methylbutyl)boronic Acid]
6 | 97.3 | 14.3 | 49.4 | 28.1 | CC(C)C[C@H](NC(=O)CNC(=O)c1cc(Cl)ccc1Cl)B(O)O [Ixazomib, reference compound]
